{"source": "patent US7361371B2", "about": "“Extract of petasites japonicus having neuroprotective effect and antioxidant activity” (Industry & Acacemic Cooreration in Chungnam National …, priority 2003, dated 2008)", "key": {"glutathione (GSH)": {"system": "glutathione (GSH)", "format": "in vivo, mouse", "settings": "KA administered alone", "procedure": "About 0.2 g of brain tissue from each brain was put into cold 6% metaphosphoric acid solution and crushed using a cold ceramic percussion motor. The crushed solution was centrifuged at 4° C., 27,000 g for 20 minutes. The supernatant was taken. To 0.05 Ml of the supernatant, 0.39 Ml of 100 mM phosphate buffer (pH 7.4) containing 5 mM EDTA, 0.025 ml of 10 mM DTNB (5,5-dithiobis-(2-nitrobenzoic acid)) and 0.08 ml of 5 mM NADPH were added and equilibrated at 25° C. for 3 minutes. Then, 2 units of glutathione (GSH) reductase was added thereto to initiate a reaction. The formation of 2-nitro-5-thiobenzoic acid was monitored by measuring the adsorption at 412 nm using a UV/VIS spectrophotometer (Roberts, J. C. and Francetic, D. J., Analytical Biochemistry, 1993, 211, 183-187; Raymond, C. et al., Journal of Nutrition, 1995, 125, 3062-3070). The total GSH amount contained in a sample was determined from a standard curve constructed by plotting the adsorption at 412 nm versus the known amount of GSH. The amount of GSH was shown by an average±S.E.M of data obtained by performing the experiment using 4 to 8 mice 3 times."}, "[1]": {"system": "ICR mice (KA-induced oxidative neurotoxicity)", "experiment": "Fatality rate of mice after kainic acid (KA) injection", "format": "in vivo, mouse", "method": "KA, and KA and the butanol fraction of Petasites japonicus were administered and the fatality rate was measured.\nThe fractions were subjected to the same procedures as described above to measure the fatality rate."}, "glutathione peroxidase": {"system": "glutathione peroxidase", "format": "in vivo, mouse", "settings": "KA alone or butanol fraction pre-administered; FIG. 6a"}, "[2]": {"system": "lipid peroxidation in brain tissue", "experiment": "KA-induced lipid peroxidation (TBARS amount) in brain homogenate of treated mice", "format": "in vivo, mouse", "settings": "KA alone, or pre-treatment with butanol fraction 400 mg/kg, Fraction I or Fraction II", "method": "Concretely, the brains were removed from mice\nBrain tissue from each brain was crushed in 0.25M sucrose solution and the crushed brain homogenate was measured for the TBARS amount contained therein."}, "[3]": {"experiment": "Change in body weight and brain weight of mice", "procedure": "(§1) Male ICR mice (22.5±2.5 g, 6 to 8 weeks old) were freely fed with solid feed for experimental animals (SamYang Co. Korea) in a polycarbonate cage (5 animals per cage). The mice were bred under conditions including a temperature and a relative humidity maintained at 23±3° C. and 60±10%, respectively, a light-dark cycle of 12 hours and illumination of 150 to 200 Lux. Only the animals which had been judged to be healthy during the acclimation period were randomly assigned to groups for the experiment. The breeding and experiment of animals were performed according to Guide for care and use of laboratory animal (National Institutes of Health Guidelines, 1985, 85-23). The groups of mice were unspecifically grouped and the body weight was measured every day. […] After the KA injection, the behavioral change of the mice was monitored by the method of Kondo et al. (Journal of Cerebral Blood Flow and Metabolism, 1997, 17, 241-256). Also, on the next day after the KA injection, the brains were removed from the mice, frozen in liquid nitrogen and stored at −80° C. for 48 hours at maximum until used."}, "[4]": {"system": "ICR mice (neurotoxic behavior induced by KA)", "experiment": "Neuronal behavior change (tail arch, tremor, seizure) after KA", "format": "in vivo, mouse", "settings": "KA 44 mg/kg, fraction I or II 200 mg/kg", "procedure": "as §1"}, "[5]": {"system": "pyramidal cells in CA1 and CA3 sites of the hippocampus", "experiment": "Tissue biopsy: surviving nerve cells in hippocampus after KA", "format": "in vivo, mouse", "settings": "brain removed on the next day after KA; butanol fraction pretreated", "text": "Also, the brain removed on the next day after the administration of KA was subjected to a tissue biopsy to examine damage of pyramidal cells in CA1 and CA3 sites of the hippocampus."}, "[6]": {"system": "lipid peroxidation in the brain of a mouse", "experiment": "Inhibition of Fe2+/ascorbic acid-induced lipid peroxidation (TBARS) in mouse brain homogenate", "format": "biochemical", "settings": "Fe2+ 0.2 mM / ascorbic acid 25 mM, 37° C., 30 minutes, TBARS at 533 nm", "procedure": "Concretely, the brain of an ICR male mouse (22.5±2.5 g, 6 to 8 weeks old) was removed and washed with 0.15 M KCl solution containing 2 mm EDTA. The washed brain was ground using a tissue homogenizer (Teflon pestle). To 1 ml of the ground brain, 1 ml of 8.1% SDS, 2 ml of 20% acetic acid and 1 ml of 0.75% thiobarbituric acid (TBA) were added. The resulting mixture was boiled, cooled in ice for 30 minutes and centrifuged at 14,000 rpm for 10 minutes to obtain the supernatant. To the supernatant, 1 ml of each of the various solvent fractions of Petasites japonicus from Example 1 was added and Fe^2+ 0.2 mM and ascorbic acid 25 mM were added. The resulting mixture was thoroughly mixed while stirring at 37° C. After 30 minutes, to the mixture, 15% trichloroacetic acid (TCA) and 0.75% TBA were added in the same volume as the mixture. The reaction was boiled for 15 minutes, stored in ice for 5 minutes and centrifuged at 3,000 rpm for 10 minutes to remove corpuscolates. The supernatant was taken and measured for absorption at 533 nm (Bidlack, W. T., and Tappel, A. L., Lipids, 1973, 8, 177-182). Malondialdehyde (Gutteridge, J. M. C., Analytical Biochemistry, 1975, 69, 518-526) produced by hydrolysis of 1,1,3,3,-tetraethoxypropane) was used for calibration.\nAsample: absorption of a mixture of brain hydrogenate, ascorbic acid/Fe^2+ and Petasites japonicus extract at 533 nm, […]"}, "[7]": {"settings": "KA 44 mg/kg, fraction I or II 200 mg/kg"}, "[8]": {"settings": "KA 50 mg/kg, butanol fraction 400 mg/kg"}}, "data": [{"smiles": "C=C(C)[C@H]1CN[C@H](C(=O)O)[C@H]1CC(=O)O", "note": "[KA, kainic acid]", "values": [{"measurement": "Total GSH amount in the brain tissue", "setting": "glutathione (GSH)", "value": 20, "unit": "%"}, {"measurement": "Fatality rate", "setting": "[1]; Exp. Group 1: KA 50 mg/kg intraperitoneal, butanol fraction 400 mg/kg oral once per day for 4 days before KA", "value": 54, "unit": "%"}, {"measurement": "Fatality rate", "setting": "[1]; Exp. Group 2: KA 50 mg/kg intraperitoneal, butanol fraction 150 mg/kg oral once per day for 4 days before KA", "value": 63.6, "unit": "%"}, {"measurement": "Fatality rate", "setting": "[1]; [7]", "value": 54, "unit": "%"}, {"measurement": "Glutathione peroxidase activity (in words)", "setting": "glutathione peroxidase", "value": "reduced"}, {"measurement": "TBARS content of brain homogenate (in words)", "setting": "[2]", "value": "increased"}, {"measurement": "Body weight change", "setting": "[3]; [7]", "value": "0.39 ± 0.29", "unit": "g"}, {"measurement": "Brain weight", "setting": "[3]; [7]", "value": "0.327 ± 0.0098", "unit": "g"}, {"measurement": "Final body weight", "setting": "[3]; [7]", "value": "29.88 ± 0.86", "unit": "g"}, {"measurement": "Initial body weight", "setting": "[3]; [7]", "value": "29.49 ± 0.91", "unit": "g"}, {"measurement": "Body weight change", "setting": "[3]; [8]", "value": "0.95 ± 0.385", "unit": "g"}, {"measurement": "Brain weight", "setting": "[3]; [8]", "value": "0.346 ± 0.0038", "unit": "g"}, {"measurement": "Final body weight", "setting": "[3]; [8]", "value": "32.34 ± 0.58", "unit": "g"}, {"measurement": "Initial body weight", "setting": "[3]; [8]", "value": "31.39 ± 0.49", "unit": "g"}, {"measurement": "Tail arch (upper value, unit not given)", "setting": "[4]; stage 1", "value": "12.4 ± 4.7"}, {"measurement": "Tail arch (value in brackets)", "setting": "[4]; stage 1", "value": "(100%)"}, {"measurement": "Tremor (upper value, unit not given)", "setting": "[4]; stage 2", "value": "16.7 ± 6.1"}, {"measurement": "Tremor (value in brackets)", "setting": "[4]; stage 2", "value": "(100%)"}, {"measurement": "Seizure (upper value, unit not given)", "setting": "[4]; stage 3", "value": "18.9 ± 19.5"}, {"measurement": "Seizure (value in brackets)", "setting": "[4]; stage 3", "value": "(100%)"}, {"measurement": "Surviving nerve cells in the CA1 site of the hippocampus", "setting": "[5]", "value": 18.5, "unit": "%"}, {"measurement": "Surviving nerve cells in the CA3 site of the hippocampus", "setting": "[5]", "value": 8.9, "unit": "%"}]}, {"smiles": "O=C1O[C@H]([C@@H](O)CO)C(O)=C1O", "note": "[Ascorbic acid]", "values": [{"measurement": "IC50 (inhibition of lipid peroxidation)", "setting": "[6]", "value": 790, "unit": "µg/mL"}]}]}
